Read-outs that look alike come from different tables or passages of the source.
Experiments:
[1] = sealed
Excerpt: Salts prepared as in example 1 were dried, stored under the specified conditions without the addition of other substances and checked at regular intervals visually for discoloration: […]

Lactic acid bacteria = details: Part II, 1 g/l in apple juice pH 4.5, 25° C.
Clostridia = details: Part II, 1 g/l in apple juice pH 4.5, 25° C.
Bacilli = details: Part II, 1 g/l in apple juice pH 4.5, 25° C.
Thermophilic bacilli = details: Part II, 1 g/l in apple juice pH 4.5, 25° C.
Acetic acid bacteria = details: Part II, 1 g/l in apple juice pH 4.5, 25° C.
Yeasts = details: Part II, 1 g/l in apple juice pH 4.5, 25° C.
Molds I = details: Part II, 1 g/l in apple juice pH 4.5, 25° C.
Molds II = details: Part II, 1 g/l in apple juice pH 4.5, 25° C.
Gram-negative bacteria = details: Part II; for Number of surviving microorganisms per g of contaminated sample, Gram-negative bacteria: 1 g/l in apple juice pH 4.5, 25° C.
Gram-positive bacteria = details: Part II, 1 g/l in apple juice pH 4.5, 25° C.
[2] = 1 day after inoculation (2.7 × 10^4)
[3] = 3 days after inoculation (2.7 × 10^4)
[4] = 7 days after inoculation (2.7 × 10^4)
[5] = 14 days after inoculation (2.7 × 10^4)

SMILES: C/C=C/C=C/C(=O)[O-].CC(=O)[O-].[Ca+2] [calcium acetate sorbate]
- Time after yellow-brown discoloration of a 1% strength aqueous solution ([1]; dark at 7° C.): >12 months />12 months
- Time after yellow-brown discoloration of the powder ([1]; dark at 7° C.): 12 months />12 months
- Time after yellow-brown discoloration of a 1% strength aqueous solution ([1]; dark at 25° C.): >12 months />12 months
- Time after yellow-brown discoloration of the powder ([1]; dark at 25° C.): 12 months />12 months
- Time after yellow-brown discoloration of a 1% strength aqueous solution ([1]; under sunlight at 7° C.): 12 months />12 months
- Time after yellow-brown discoloration of the powder ([1]; under sunlight at 7° C.): 12 months />12 months
- Time after yellow-brown discoloration of a 1% strength aqueous solution ([1]; under sunlight at 25° C.): 12 months />12 months
- Time after yellow-brown discoloration of the powder ([1]; under sunlight at 25° C.): 12 months />12 months
- Number of surviving microorganisms per g of contaminated sample, Lactic acid bacteria (Lactic acid bacteria; [2]): 5.5 × 10^3 CFU/g
- Number of surviving microorganisms per g of contaminated sample, Lactic acid bacteria (Lactic acid bacteria; [3]): <100 CFU/g
- Number of surviving microorganisms per g of contaminated sample, Lactic acid bacteria (Lactic acid bacteria; [4]): <10 CFU/g
- Number of surviving microorganisms per g of contaminated sample, Lactic acid bacteria (Lactic acid bacteria; [5]): <10 CFU/g
- Number of surviving microorganisms per g of contaminated sample, Clostridia (Clostridia; 1 day after inoculation (2.9 × 10^4)): 7.0 × 10^2 CFU/g
- Number of surviving microorganisms per g of contaminated sample, Clostridia (Clostridia; 3 days after inoculation (2.9 × 10^4)): <100 CFU/g
- Number of surviving microorganisms per g of contaminated sample, Clostridia (Clostridia; 7 days after inoculation (2.9 × 10^4)): <10 CFU/g
- Number of surviving microorganisms per g of contaminated sample, Clostridia (Clostridia; 14 days after inoculation (2.9 × 10^4)): <10 CFU/g
- Number of surviving microorganisms per g of contaminated sample, Bacilli (Bacilli; 1 day after inoculation (3.3 × 10^4)): 2.5 × 10^3 CFU/g
- Number of surviving microorganisms per g of contaminated sample, Bacilli (Bacilli; 3 days after inoculation (3.3 × 10^4)): 1.7 × 10^3 CFU/g
- Number of surviving microorganisms per g of contaminated sample, Bacilli (Bacilli; 7 days after inoculation (3.3 × 10^4)): 1.7 × 10^3 CFU/g
- Number of surviving microorganisms per g of contaminated sample, Bacilli (Bacilli; 14 days after inoculation (3.3 × 10^4)): 1.4 × 10^3 CFU/g
- Number of surviving microorganisms per g of contaminated sample, Thermophilic bacilli (Thermophilic bacilli; 1 day after inoculation (1.3 × 10^4)): 2.3 × 10^3 CFU/g
- Number of surviving microorganisms per g of contaminated sample, Thermophilic bacilli (Thermophilic bacilli; 3 days after inoculation (1.3 × 10^4)): 1.1 × 10^3 CFU/g
- Number of surviving microorganisms per g of contaminated sample, Thermophilic bacilli (Thermophilic bacilli; 7 days after inoculation (1.3 × 10^4)): 1.0 × 10^2 CFU/g
- Number of surviving microorganisms per g of contaminated sample, Thermophilic bacilli (Thermophilic bacilli; 14 days after inoculation (1.3 × 10^4)): <10 CFU/g
- Number of surviving microorganisms per g of contaminated sample, Acetic acid bacteria (Acetic acid bacteria; 1 day after inoculation (2.8 × 10^4)): 2.5 × 10^4 CFU/g
- Number of surviving microorganisms per g of contaminated sample, Acetic acid bacteria (Acetic acid bacteria; 3 days after inoculation (2.8 × 10^4)): 6.5 × 10^3 CFU/g
- Number of surviving microorganisms per g of contaminated sample, Acetic acid bacteria (Acetic acid bacteria; 7 days after inoculation (2.8 × 10^4)): 1.7 × 10^5 CFU/g
- Number of surviving microorganisms per g of contaminated sample, Acetic acid bacteria (Acetic acid bacteria; 14 days after inoculation (2.8 × 10^4)): 1.6 × 10^5 CFU/g
- Number of surviving microorganisms per g of contaminated sample, Yeasts (Yeasts; 1 day after inoculation (2.6 × 10^4)): 1.3 × 10^4 CFU/g
- Number of surviving microorganisms per g of contaminated sample, Yeasts (Yeasts; 3 days after inoculation (2.6 × 10^4)): 3.4 × 10^3 CFU/g
- Number of surviving microorganisms per g of contaminated sample, Yeasts (Yeasts; 7 days after inoculation (2.6 × 10^4)): <100 CFU/g
- Number of surviving microorganisms per g of contaminated sample, Yeasts (Yeasts; 14 days after inoculation (2.6 × 10^4)): <10 CFU/g
- Number of surviving microorganisms per g of contaminated sample, Molds I (Molds I; 1 day after inoculation (2.2 × 10^4)): 3.7 × 10^3 CFU/g
- Number of surviving microorganisms per g of contaminated sample, Molds I (Molds I; 3 days after inoculation (2.2 × 10^4)): 5.0 × 10^2 CFU/g
- Number of surviving microorganisms per g of contaminated sample, Molds I (Molds I; 7 days after inoculation (2.2 × 10^4)): 1.0 × 10^2 CFU/g
- Number of surviving microorganisms per g of contaminated sample, Molds I (Molds I; 14 days after inoculation (2.2 × 10^4)): <100 CFU/g
- Number of surviving microorganisms per g of contaminated sample, Molds II (Molds II; 1 day after inoculation (2.5 × 10^4)): 4.4 × 10^3 CFU/g
- Number of surviving microorganisms per g of contaminated sample, Molds II (Molds II; 3 days after inoculation (2.5 × 10^4)): <100 CFU/g
- Number of surviving microorganisms per g of contaminated sample, Molds II (Molds II; 7 days after inoculation (2.5 × 10^4)): <10 CFU/g
- Number of surviving microorganisms per g of contaminated sample, Molds II (Molds II; 14 days after inoculation (2.5 × 10^4)): <10 CFU/g
- Growth of Gram-negative bacteria (Gram-negative bacteria; 1 g/l in apple juice pH 4.5): substantially inhibited
- Number of surviving microorganisms per g of contaminated sample, Gram-negative bacteria (Gram-negative bacteria; [2]): 9.0 × 10^3 CFU/g
- Number of surviving microorganisms per g of contaminated sample, Gram-negative bacteria (Gram-negative bacteria; [3]): 3.2 × 10^3 CFU/g
- Number of surviving microorganisms per g of contaminated sample, Gram-negative bacteria (Gram-negative bacteria; [4]): 1.5 × 10^3 CFU/g
- Number of surviving microorganisms per g of contaminated sample, Gram-negative bacteria (Gram-negative bacteria; [5]): 4.2 × 10^4 CFU/g
- Number of surviving microorganisms per g of contaminated sample, Gram-positive bacteria (Gram-positive bacteria; 1 day after inoculation (2.1 × 10^4)): 2.5 × 10^4 CFU/g
- Number of surviving microorganisms per g of contaminated sample, Gram-positive bacteria (Gram-positive bacteria; 3 days after inoculation (2.1 × 10^4)): 6.2 × 10^3 CFU/g
- Number of surviving microorganisms per g of contaminated sample, Gram-positive bacteria (Gram-positive bacteria; 7 days after inoculation (2.1 × 10^4)): 2.7 × 10^3 CFU/g
- Number of surviving microorganisms per g of contaminated sample, Gram-positive bacteria (Gram-positive bacteria; 14 days after inoculation (2.1 × 10^4)): <10 CFU/g
- Preservative action against the microorganisms used (all microorganisms used; 1 g/l in apple juice pH 4.5, up to 14 days): acts well and persistently against all microorganisms used except for acetic acid bacteria and bacilli
- Preservative action compared with the single salts (all microorganisms used; same concentration, 1 g/l in apple juice pH 4.5): acts surprisingly better than calcium acetate (in particular against lactic acid bacteria, yeasts, molds and Gram-positive bacteria) or calcium sorbate (in particular against lactic acid bacteria) used alone
